Measurements taken from patent US9498759B2, “Compartmentalized screening by microfluidic control” (President and Fellows of Harvard College, priority 2004, dated 2016).

Assays:
[1] = Compartmentalisation of small molecules in water-in-fluorocarbon emulsions (epifluorescence microscopy); type: physicochemical; conditions: water-in-perfluorooctyl bromide emulsions mixed by vortexing, imaged after 24 hours
Method: FIG. 19. Compartmentalisation of small molecules in water-in-fluorocarbon emulsions. Water-in-perfluorooctyl bromide emulsions were made containing texas red (1 mM) and calcein ([…] in the aqueous phase by homogenisation as described in example 9. The two emulsions were mixed by vortexing and imaged by epifluorescence microscopy after 24 hours. No exchange of texas-red (red fluorescence) and calcein (green fluorescence) between microdroplets could be observed.
Water-in-fluorocarbon emulsions containing 95% (v/v) perfluorooctyl bromide, 5% (v/v) phosphate buffered saline containing the molecule of interest in solution, and 2% (w/v) C8F17C11H22OP(O)[N(CH2CH2)2O]2 (F8H1DMP) as surfactant were formed essentially as (Sadtler et al., 1996) by extrusion (15 times) through 14 μm filters (Osmonics) or by homogenising for 5 min at 25,000 r.p.m. using an Ultra-Turrax T8 Homogenizer (IKA) with a 5 mm dispersing tool. Emulsions were made containing a series of small fluorescent molecules dissolved in the aqueous phase at concentrations from […] to 2 mM. These molecules, including calcein, texas red, fluorescein, coumarin 102, 7-hydroxycoumarin-3-carboxylic acid and 7-diethylamino-4-methyl coumarin (coumarin 1), had molecular weights from 203 to 625 Da and Log P values—calculated using SRC's Log Kow/KowWin Program (Meylan and Howard, 1995)—ranging from −0.49 to 4.09. […]

[2] = target: T1, E. coli β-galactosidase (LacZ) (Escherichia coli, UniProt P00722); type: biochemical
Method: In the enzyme inhibition assay, the rate of catalysis is determined by using a non-fluorescent substrate for LacZ, fluorescein mono-β-D-galactoside (FMG) (FMG), and measuring the appearance of the fluorescent product, fluorescein (excitation 488 nm, emission 514 nm). All components of the LacZ inhibition assay are dissolved in assay buffer (10 mm MgCl2, 50 mM NaCl, 1 mM DTT, 100 μg/ml BSA, 10 mM Tris-HCl, pH 7.9.
Leading into each droplet forming module (FIG. 15) are two Teflon tubes leading from syringe pumps. The channels leading from each tube merge to create a single flow before entering the droplet forming module. The two syringes feeding into the first droplet forming module contain, (a) 50 μM PETG in assay buffer, and (b), assay buffer. The two syringes feeding into the second droplet forming module contain, (c) 100 nM LacZ in assay buffer and (d), assay buffer. The two syringes feeding into the third droplet forming module contain, (e) 5 mM FMG in assay buffer, and (f), assay buffer. The final concentration of each component in each droplet is independently controllable by adjusting relative flow rates of each component and buffer solution while maintaining a constant combined flow rate from both syringes.
The first droplet fusion mixes the inhibitor (PETG) with the enzyme (LacZ). After the combined droplet has spent two minutes in a delay line it is fused with a third droplet containing the fluorogenic enzyme substrate (FMG). Finally, after all the components are mixed the reaction is observed by measuring fluorescence of individual droplets or by integrating fluorescent light from droplets with the same concentration of each component during 10-second exposure time at multiple points in the second 10 min long delay line. Each fluorescence intensity value at different positions is proportional to the amount of product at different reaction times. Rate of product formation is linear during initial reaction time and initial rate (ν) can be determined from linear fitting. […]

[3] = target: T1, E. coli β-galactosidase (LacZ); conditions: Huang, 1991, cited from earlier work
[4] = target: T2, human recombinant PTP1B, residues 1-322 (Homo sapiens, UniProt P18031); experiment: Screening for PTP1B inhibitors using microcapsules in a microfluidic system (DiFMUP fluorescence); type: biochemical; conditions: 100 μM compound solution, PTP1B 50 mU/ml, substrate DiFMUP, excitation/emission 358/452 nm
T2 construct: human recombinant PTP1B, residues 1-322; purchased Biomol Research Laboratories, Inc
T2 sequence (P18031 1-322): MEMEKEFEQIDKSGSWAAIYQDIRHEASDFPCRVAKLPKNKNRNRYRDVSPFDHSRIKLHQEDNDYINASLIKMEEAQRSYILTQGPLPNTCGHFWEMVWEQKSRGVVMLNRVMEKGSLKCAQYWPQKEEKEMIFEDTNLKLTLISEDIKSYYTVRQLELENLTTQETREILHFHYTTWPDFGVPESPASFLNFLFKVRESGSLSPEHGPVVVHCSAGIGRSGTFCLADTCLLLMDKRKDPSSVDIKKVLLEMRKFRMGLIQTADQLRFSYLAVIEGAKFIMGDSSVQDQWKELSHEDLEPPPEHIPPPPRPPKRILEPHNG
Method: All water-soluble reagents are dissolved in (25 mM HEPES, pH 7.4, 125 mM NaCl, 1 mM EDTA), a buffer compatible with PTP1B activity. […] Each microcapsule containing target enzyme is fused with a microcapsule containing compound 2 or a microcapsule containing hydrocinnamic acid. Microcapsules containing either compound 2 or hydrocinnamic acid can be formed by switching between injection with syringes containing compound 2 and hydrocinnamic acid.
After microcapsule fusion the contents are rapidly mixed. After this point the microcapsules are run for up to 1 min through a 60 cm long microchannel (to allow inhibitor binding). This microchannel is then merged with a second microchannel containing, aqueous microcapsules containing the fluorogenic PTP1B substrate 6,8-difluoro-4-methylumbelliferyl phosphate (DiFMUP) (Molecular Probes) in 25 mM HEPES, pH 7.4, 125 mM NaCl, 1 mM EDTA and the microcapsules fused pairwise. The fused microcapsules are then run for up to 2 min through a 60 cm long microchannel. Fluorescence of the microcapsules due to production of DiFMU (excitation/emmission maxima 358/452 nm; blue fluorescence) is measured.

PTP1B = target: T3, PTP1B (Homo sapiens, UniProt P18031); conditions: Johnson et al., 2002; cited from earlier work
T3 sequence (P18031 1-435): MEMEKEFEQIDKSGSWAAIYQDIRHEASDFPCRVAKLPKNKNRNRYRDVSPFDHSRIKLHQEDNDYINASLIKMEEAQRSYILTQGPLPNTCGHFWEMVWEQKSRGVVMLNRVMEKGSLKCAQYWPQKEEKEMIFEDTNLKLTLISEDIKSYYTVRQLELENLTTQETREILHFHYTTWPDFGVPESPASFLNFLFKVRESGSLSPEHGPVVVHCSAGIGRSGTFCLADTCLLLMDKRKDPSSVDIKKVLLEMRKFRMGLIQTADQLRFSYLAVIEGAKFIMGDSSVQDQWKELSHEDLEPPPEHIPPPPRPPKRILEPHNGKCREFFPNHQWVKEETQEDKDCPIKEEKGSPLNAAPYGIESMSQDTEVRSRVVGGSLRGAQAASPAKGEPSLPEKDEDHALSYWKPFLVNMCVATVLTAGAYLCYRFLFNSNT

[5] = 30 nM LacZ, 0 to 13 μM PETG, 10 to 700 μM FMG

T1 sequence (P00722 2-1024): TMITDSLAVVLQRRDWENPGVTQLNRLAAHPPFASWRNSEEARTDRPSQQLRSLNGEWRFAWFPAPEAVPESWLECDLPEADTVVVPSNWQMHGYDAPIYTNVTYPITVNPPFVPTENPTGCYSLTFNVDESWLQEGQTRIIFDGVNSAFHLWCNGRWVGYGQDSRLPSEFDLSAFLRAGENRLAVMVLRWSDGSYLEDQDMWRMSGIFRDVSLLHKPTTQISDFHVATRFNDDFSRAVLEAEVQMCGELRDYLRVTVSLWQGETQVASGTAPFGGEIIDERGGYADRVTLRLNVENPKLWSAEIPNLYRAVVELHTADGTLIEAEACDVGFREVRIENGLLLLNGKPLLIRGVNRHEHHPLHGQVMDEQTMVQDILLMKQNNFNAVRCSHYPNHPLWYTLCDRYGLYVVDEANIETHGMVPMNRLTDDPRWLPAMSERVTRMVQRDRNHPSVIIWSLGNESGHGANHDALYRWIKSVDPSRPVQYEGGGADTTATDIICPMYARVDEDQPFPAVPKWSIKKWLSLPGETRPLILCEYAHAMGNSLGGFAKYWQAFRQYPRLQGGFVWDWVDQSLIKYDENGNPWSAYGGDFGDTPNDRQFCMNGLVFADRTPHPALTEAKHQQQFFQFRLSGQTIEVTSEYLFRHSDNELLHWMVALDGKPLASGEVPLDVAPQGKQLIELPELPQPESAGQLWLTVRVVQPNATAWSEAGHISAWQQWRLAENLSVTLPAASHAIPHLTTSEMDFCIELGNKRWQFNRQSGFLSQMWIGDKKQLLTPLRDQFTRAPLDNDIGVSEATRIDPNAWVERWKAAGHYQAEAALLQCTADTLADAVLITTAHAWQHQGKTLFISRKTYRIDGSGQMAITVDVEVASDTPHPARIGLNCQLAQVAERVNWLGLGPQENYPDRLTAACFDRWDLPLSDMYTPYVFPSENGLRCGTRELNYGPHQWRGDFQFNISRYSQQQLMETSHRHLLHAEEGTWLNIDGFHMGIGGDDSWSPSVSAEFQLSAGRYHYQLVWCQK

O=C(O)CN(CC(=O)O)Cc1cc2c(cc1O)Oc1cc(O)c(CN(CC(=O)O)CC(=O)O)cc1C21OC(=O)c2ccccc21 [calcein]
Exchange between microdroplets/compartments [1]: No exchange

O=C1OC2(c3ccc(O)cc3Oc3cc(O[C@@H]4O[C@H](CO)[C@H](O)[C@H](O)[C@H]4O)ccc32)c2ccccc21 (stereo partly drawn) [FMG, fluorescein mono-β-D-galactoside]
KM of FMG for LacZ determined in fused microcapsules, deviation from previously published value [2, 5]: ≤ 20%
Km ([3]; read-out: KM of FMG for LacZ, previously published value): 118 µM

OCC1OC(SCCc2ccccc2)C(O)C(O)C1O [PETG, phenylethyl β-D-thiogalactopyranoside]
Ki of PETG for LacZ determined in fused microcapsules [2, 5]: within the range of the previously published value
Mode of inhibition ([2]; Lineweaver-Burk plot, same y-intercept at different PETG concentrations): competitive
Ki ([3]; read-out: Ki of PETG for LacZ, previously published value): 980 nM

texas red
Exchange between microdroplets/compartments [1]: No exchange

O=C(O)CCc1ccccc1 [hydrocinnamic acid]
Fluorescence of the microcapsules due to production of DiFMU (blue fluorescence) [4]: exhibiting blue fluorescence
PTP1B inhibitor status / relative potency (PTP1B): not a PTP1B inhibitor
